Laboratory results taken from US20110104361A1, “TASTE-IMPROVING AGENT FOR POTASSIUM SALT OR POTASSIUM SALT-CONTAINING FOOD OR DRINK” (OGAWA & CO., LTD., priority 2008, published 2011).

Assays:
[1] = Organoleptic evaluation, meat sauce (Test Example 14); conditions: addition quinic acid-containing composition 5.0 ppm, spilanthol 0.1 ppm, shallot extract 10.0 ppm, panel of 10 experts vs control
Experimental: (§1) The taste-improving agents obtained in Production Examples 1-5 were used to examine the taste-improving effects on potassium salts or potassium salt-containing foods or drinks. [table] To reduced-sodium meat sauce having the following formulation 8 there were added each of the agents for improving taste of Production Examples 1, 2, 4 and 5 so that the contents of the quinic acid-containing compositions (Production Examples 1 and 2), purified spilanthol (Production Example 4) and shallot extract (Production Example 5) in the meat sauce were as listed in Table 12, and an organoleptic evaluation was conducted by a panel of 10 experts based on the rating scale shown in Table 1, with a product containing no agent for improving taste according to the invention, as the control. [table]

[2] = Organoleptic evaluation, cream stew (second Test Example 13); conditions: addition quinic acid-containing composition 5.0 ppm, spilanthol 0.1 ppm, shallot extract 10.0 ppm, panel of 10 experts vs control
Experimental: as §1, with “reduced-sodium cream stew” for “reduced-sodium meat sauce”, “formulation 7” for “formulation 8”, “the stew” for “the meat sauce”, “Table 11,” for “Table 12,”

[3] = Organoleptic evaluation, ramen soup (Test Example 11); conditions: addition quinic acid-containing composition 5.0 ppm, spilanthol 0.1 ppm, shallot extract 10.0 ppm, panel of 10 experts vs control
Experimental: The taste-improving agents obtained in Production Examples 1-5 were used to examine the taste-improving effects on potassium salts or potassium salt-containing foods or drinks. [table] To reduced-sodium ramen soup having the following formulation 4 there were added each of the agents for improving taste of Production Examples 2, 4 and 5 so that the contents of the quinic acid-containing composition (Production Example 2), purified spilanthol (Production Example 4) and shallot extract (Production Example 5) in the soup were as listed in Table 8, and an organoleptic evaluation was conducted by a panel of 10 experts based on the rating scale shown in Table 1, with a product containing no agent for improving taste according to the invention, as the control. [table] A 20 g portion of the powder above was dissolved in 500 g of hot water.

[4] = Organoleptic evaluation, potassium chloride aqueous solution (Test Example 5); conditions: 0.75 wt % KCl aqueous solution; addition quinic acid-containing composition 5.0 ppm, spilanthol 0.1 ppm, shallot extract 10.0 ppm; panel of 10 experts vs control without agent
Experimental: The taste-improving agents obtained in Production Examples 1-5 were used to examine the taste-improving effects on potassium salts or potassium salt-containing foods or drinks. [table] To a 0.75 wt % potassium chloride aqueous solution there were added each of the agents for improving taste of Production Examples 1-5, so that the content of the quinic acid-containing compositions (Production Examples 1 and 2), spilanthol (Production Examples 3 and 4) or shallot extract (Production Example 5) in the potassium chloride aqueous solution was as listed in Table 2, and an organoleptic evaluation was conducted by a panel of 10 experts based on the rating scale shown in Table 1, with a product containing no agent for improving taste according to the invention, as the control.

SMILES: CC=CC=CCCC=CC(=O)NCC(C)C [Purified spilanthol (Prod. Ex. 4), N-isobutyl-2,6,8-decatrieneamide]
- Meat flavor [1]: − (No effect/change (fewer than 3/10 panelists noticed an effect compared to the control))
- Metallic taste [1]: + (Somewhat noticeable effect (at least 3/10 panelists noticed an effect compared to the control))
- Tomato flavor [1]: − (No effect/change (fewer than 3/10 panelists noticed an effect compared to the control))
- Milk flavor [2]: − (No effect/change (fewer than 3/10 panelists noticed an effect compared to the control))
- Sweet taste [2]: − (No effect/change (fewer than 3/10 panelists noticed an effect compared to the control))
- Unpleasant taste [2]: + (Somewhat noticeable effect (at least 3/10 panelists noticed an effect compared to the control))
- Chicken flavor [3]: − (No effect/change (fewer than 3/10 panelists noticed an effect compared to the control))
- Salty taste [3]: + (Somewhat noticeable effect (at least 3/10 panelists noticed an effect compared to the control))
- Unpleasant taste [3]: + (Somewhat noticeable effect (at least 3/10 panelists noticed an effect compared to the control))
- Metallic taste [4]: ++ (Noticeable effect (at least 5/10 panelists noticed an effect compared to the control))
